Patent publication US20100317647A1 (priority 2009, published 2010)

target: human Cat S (Homo sapiens, UniProt P25774); assay: Cathepsin enzyme inhibition assay (fluorogenic peptide substrate cleavage); format: biochemical; settings: human Cat S 1 nM; substrate Z-Val-Val-Arg-AMC 20 μM; pH 6.5; fluorescence over 20 minutes
How it was run: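 IC50 values derived from fluorescence increase (ex 360 nm, em 465 nm) monitored for 20 minutes after substrate addition. Enzyme held at 1 nM with 20 μM Z-Val-Val-Arg-AMC, in pH 6.5 potassium phosphate buffer containing DTT, EDTA and Triton X-100.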

Chain of human Cat S (P25774 115-331): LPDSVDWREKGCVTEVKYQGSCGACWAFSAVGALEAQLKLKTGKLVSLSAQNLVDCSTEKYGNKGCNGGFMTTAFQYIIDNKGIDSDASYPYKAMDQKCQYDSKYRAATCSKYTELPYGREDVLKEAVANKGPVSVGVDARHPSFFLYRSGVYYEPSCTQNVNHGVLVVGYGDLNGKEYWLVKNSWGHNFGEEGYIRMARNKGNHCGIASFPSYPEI

IC50 [nM]	Structure (SMILES)
0.38	Cn1cc(-c2cccc(S(=O)(=O)[C@@H]3C[C@@H](C(=O)NC4(C#N)CC4)[C@H](C(=O)N4CCC(F)(F)C4)C3)c2)cn1 [Example 202, (1R,2R,4R)-2-(3,3-Difluoro-pyrrolidine-1-carbonyl)-4-[3-(1-methyl-1H-pyrazol-4-yl)-benzenesulfonyl]-cyclopentanecarboxylic acid (1-cyano-cyclopropyl)-amide]
0.3	COC(=O)Cn1cc(-c2ccc(S(=O)(=O)[C@H]3C[C@@H](OC)[C@H](C(=O)NC4(C#N)CC4)C3)c(C(F)(F)F)c2)cn1 (racemic) [Example 179, (4-{4-[(1R,3R,4R) and (1S,3S,4S)-3-(1-Cyano-cyclopropylcarbamoyl)-4-methoxy-cyclopentanesulfonyl]-3-trifluoromethyl-phenyl}-pyrazol-1-yl)-acetic acid methyl ester]
1.45	CC(=O)N1CCN(c2ccc(S(=O)(=O)[C@@H]3C[C@@H](C(=O)NC4(C#N)CC4)[C@H](C(=O)N4CCC(F)(F)C4)C3)c(Cl)c2)CC1 [Example 208, (1R,2R,4R)-4-[4-(4-Acetyl-piperazin-1-yl)-2-chloro-benzenesulfonyl]-2-(3,3-difluoro-pyrrolidine-1-carbonyl)-cyclopentanecarboxylic acid (1-cyano-cyclopropyl)-amide]
230	N#CCNC(=O)[C@@H]1C[C@@H](S(=O)(=O)CC2CC2)C[C@H]1C(=O)N1CCOCC1 [Example 40, (1R,2R,4R)-4-Cyclopropylmethanesulfonyl-2-(morpholine-4-carbonyl)-cyclopentanecarboxylic acid cyanomethyl-amide]
1.8	CO[C@@H]1C[C@H](S(=O)(=O)c2ccc(-c3cnn(C)c3)cc2C(F)(F)F)C[C@H]1C(=O)NC1(C#N)CCN(C)CC1 (racemic) [Example 236, (1R,2R,4R) and (1S,2S,4S)-2-Methoxy-4-[4-(1-methyl-1H-pyrazol-4-yl)-2-trifluoromethyl-benzenesulfonyl]-cyclopentanecarboxylic acid (4-cyano-1-methyl-piperidin-4-yl)-amide]
1.5	N#CC1(NC(=O)[C@@H]2C[C@@H](S(=O)(=O)c3ccccc3)C[C@H]2C(=O)N2CCCC2)CC1 [Example 23, (1R,2R,4R)-4-Benzenesulfonyl-2-(pyrrolidine-1-carbonyl)-cyclopentanecarboxylic acid (1-cyano-cyclopropyl)-amide]
0.6	Cc1ccc(S(=O)(=O)[C@@H]2C[C@@H](C(=O)NCC#N)[C@H](C(=O)N3CCOCC3)C2)cc1 [Example 4, (1R,2R,4R)-2-(Morpholine-4-carbonyl)-4-(toluene-4-sulfonyl)-cyclopentanecarboxylic acid cyanomethyl-amide]
9.1	CO[C@@H]1C[C@H](S(=O)(=O)c2ccc(-n3nc(C)ccc3=O)cc2Cl)C[C@H]1C(=O)NC1(C#N)CC1 (racemic) [Example 88, (1R,2R,4R) and (1S,2S,4S)-4-[2-Chloro-4-(3-methyl-6-oxo-6H-pyridazin-1-yl)-benzenesulfonyl]-2-methoxy-cyclopentanecarboxylic acid (1-cyano-cyclopropyl)-amide]
5.98	N#CC1(NC(=O)[C@@H]2C[C@@H](S(=O)(=O)c3ccccc3Cl)C[C@H]2OCc2ccc(C(F)(F)F)cc2)CC1 (racemic) [Example 247, (1R,2R,4R) and (1S,2S,4S)-4-(2-chlorophenylsulfonyl)-N-(1-cyanocyclopropyl)-2-(4-(trifluoromethyl)benzyloxy)cyclopentanecarboxamide]
4.9	CCOC1CN(C(=O)[C@@H]2C[C@H](S(=O)(=O)c3ccccc3)C[C@H]2C(=O)NC2(C#N)CC2)C1 [Example 21, (1R,2R,4R)-4-Benzenesulfonyl-2-(3-ethoxy-azetidine-1-carbonyl)-cyclopentanecarboxylic acid (1-cyano-cyclopropyl)-amide]
4.2	N#CC1(NC(=O)[C@@H]2C[C@@H](S(=O)(=O)c3ccc(Br)cc3C(F)(F)F)C[C@H]2COC=O)CC1 [Example 152, Formic acid (1R,2R,4S)-4-(4-bromo-2-trifluoromethyl-benzenesulfonyl)-2-(1-cyano-cyclopropylcarbamoyl)-cyclopentylmethyl ester]
